Source: PubChem BioAssay AID2060605 (Molecular Pharmacology Branch, DTP, NCI, 2025)
Where “and” joins values, the source holds several entries; their conditions need not be identical. Equal values may be shown once.

System: 947758-054-R-J2-PDC spheroid growth, percent test/control
Assay: Anticancer human tumor 947758-054-R-J2-PDC patient-derived colon adenocarcinoma cell line growth inhibition [CLK]
Conditions: spheroids with HUVEC and MSC; for viability, T/C: stronger effect = lower value
Procedure, shortened: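 Patient-derived tumor cells grown as complex spheroids with HUVEC endothelial cells and mesenchymal stem cells, treated with drug combinations. Concentrations descend in half-log steps from near clinical Cmax, or from 10 microM if Cmax unknown.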

[1] = curve of first compound, second compound 0.0316 µM
[2] = curve of first compound, second compound 0.1 µM
[3] = curve of first compound, second compound 0.316 µM
[4] = curve of first compound, second compound 1 µM
[5] = curve of first compound, second compound 3.16 µM
[6] = curve of first compound, second compound 10 µM
[7] = second compound 0.0316 µM, first compound 0.0316 µM
[8] = second compound 0.0316 µM, first compound 0.1 µM
[9] = second compound 0.1 µM, first compound 0.0316 µM
[10] = second compound 0.1 µM, first compound 0.1 µM
[11] = second compound 0.316 µM, first compound 0.0316 µM
[12] = second compound 0.316 µM, first compound 0.1 µM
[13] = second compound 1 µM, first compound 0.0316 µM
[14] = second compound 1 µM, first compound 0.1 µM
[15] = second compound 3.16 µM, first compound 0.0316 µM
[16] = second compound 3.16 µM, first compound 0.1 µM
[17] = second compound 10 µM, first compound 0.0316 µM
[18] = second compound 10 µM, first compound 0.1 µM
[19] = second compound 0.0316 µM, first compound 0.316 µM
[20] = second compound 0.0316 µM, first compound 1 µM
[21] = second compound 0.0316 µM, first compound 3.16 µM
[22] = second compound 0.0316 µM, first compound 10 µM
[23] = second compound 0.1 µM, first compound 0.316 µM
[24] = second compound 0.1 µM, first compound 1 µM
[25] = second compound 0.1 µM, first compound 3.16 µM
[26] = second compound 0.1 µM, first compound 10 µM
[27] = second compound 0.316 µM, first compound 0.316 µM
[28] = second compound 0.316 µM, first compound 1 µM
[29] = second compound 0.316 µM, first compound 3.16 µM
[30] = second compound 0.316 µM, first compound 10 µM
[31] = second compound 1 µM, first compound 0.316 µM
[32] = second compound 1 µM, first compound 1 µM
[33] = second compound 1 µM, first compound 3.16 µM
[34] = second compound 1 µM, first compound 10 µM
[35] = second compound 3.16 µM, first compound 0.316 µM
[36] = second compound 3.16 µM, first compound 1 µM
[37] = second compound 3.16 µM, first compound 3.16 µM
[38] = second compound 3.16 µM, first compound 10 µM
[39] = second compound 10 µM, first compound 0.316 µM
[40] = second compound 10 µM, first compound 1 µM
[41] = second compound 10 µM, first compound 3.16 µM
[42] = second compound 10 µM, first compound 10 µM
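Note: spheroids exposed to compounds for one week before readout.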
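Throughout, for viability, T/C: 100% = DMSO vehicle control wells.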

SMILES: Cn1ncnc1[C@H]1c2n[nH]c(=O)c3cc(F)cc(c23)N[C@@H]1c1ccc(F)cc1 + CN1CCN(c2cc(C(=O)Nc3cc4cc(-c5cnn(C)c5)ccc4cn3)ccn2)CC1
- IC50 [1]: > 100 nM
- IC50 [2]: > 100 nM
- IC50 [3]: < 0.316 nM
- IC50 [4]: < 0.316 nM
- IC50 [5]: < 0.316 nM
- IC50 [6]: < 0.316 nM
- viability, T/C (second compound 0.0316 µM, first compound 0.000316 µM): 141%
- viability, T/C (second compound 0.0316 µM, first compound 0.001 µM): 155%
- viability, T/C (second compound 0.0316 µM, first compound 0.00316 µM): 157%
- viability, T/C (second compound 0.0316 µM, first compound 0.01 µM): 107%
- viability, T/C [7]: 133%
- viability, T/C [8]: 197%
- viability, T/C (second compound 0.1 µM, first compound 0.000316 µM): 161%
- viability, T/C (second compound 0.1 µM, first compound 0.001 µM): 171%
- viability, T/C (second compound 0.1 µM, first compound 0.00316 µM): 149%
- viability, T/C (second compound 0.1 µM, first compound 0.01 µM): 134%
- viability, T/C [9]: 181%
- viability, T/C [10]: 145%
- viability, T/C (second compound 0.316 µM, first compound 0.000316 µM): 4.7%
- viability, T/C (second compound 0.316 µM, first compound 0.001 µM): 6.84%
- viability, T/C (second compound 0.316 µM, first compound 0.00316 µM): 5.57%
- viability, T/C (second compound 0.316 µM, first compound 0.01 µM): 4.75%
- viability, T/C [11]: 5.66%
- viability, T/C [12]: 4.51%
- viability, T/C (second compound 1 µM, first compound 0.000316 µM): 0.15%
- viability, T/C (second compound 1 µM, first compound 0.001 µM): 0.15%
- viability, T/C (second compound 1 µM, first compound 0.00316 µM): 1.79%
- viability, T/C (second compound 1 µM, first compound 0.01 µM): 0.11%
- viability, T/C [13]: 0.18%
- viability, T/C [14]: 1.95%
- viability, T/C (second compound 3.16 µM, first compound 0.000316 µM): 0.37%
- viability, T/C (second compound 3.16 µM, first compound 0.001 µM): 0.17%
- viability, T/C (second compound 3.16 µM, first compound 0.00316 µM): 0.17%
- viability, T/C (second compound 3.16 µM, first compound 0.01 µM): 0.13%
- viability, T/C [15]: 0.37%
- viability, T/C [16]: 1.28%
- viability, T/C (second compound 10 µM, first compound 0.000316 µM): 0.25%
- viability, T/C (second compound 10 µM, first compound 0.001 µM): 2.6%
- viability, T/C (second compound 10 µM, first compound 0.00316 µM): 0.52%
- viability, T/C (second compound 10 µM, first compound 0.01 µM): 0.26%
- viability, T/C [17]: 0.26%
- viability, T/C [18]: 2.18%

SMILES: CCN1CCN(Cc2ccc(Nc3ncc(F)c(-c4cc(F)c5nc(C)n(C(C)C)c5c4)n3)nc2)CC1
- viability, T/C (compound 0.00316 µM): 81.3% and 94.8%
- viability, T/C (compound 0.01 µM): 81.6% and 106%
- viability, T/C (compound 0.0316 µM): 139% and 190%
- viability, T/C (compound 0.1 µM): 164% and 182%
- viability, T/C (compound 0.316 µM): 130% and 126%
- viability, T/C (compound 1 µM): 43% and 55.8%
- IC50 (curve of compound): 900 nM and > 1000 nM

SMILES: Nc1ccccc1NC(=O)c1ccc(CNC(=O)OCc2cccnc2)cc1 + CNC(=O)c1ccc(Nc2nc(OC3CCCC3)c3c(-c4ccc5nc(C)oc5c4)c[nH]c3n2)c(OC)c1
- IC50 [1]: 2230 nM
- IC50 [2]: 2520 nM
- IC50 [3]: 2510 nM
- IC50 [4]: 439 nM
- IC50 [5]: < 31.6 nM
- IC50 [6]: < 31.6 nM
- viability, T/C [7]: 89.6%
- viability, T/C [8]: 102%
- viability, T/C [19]: 122%
- viability, T/C [20]: 85.4%
- viability, T/C [21]: 34.2%
- viability, T/C [22]: 5.25%
- viability, T/C [9]: 85.4%
- viability, T/C [10]: 106%
- viability, T/C [23]: 111%
- viability, T/C [24]: 116%
- viability, T/C [25]: 36.7%
- viability, T/C [26]: 4.57%
- viability, T/C [11]: 112%
- viability, T/C [12]: 83.5%
- viability, T/C [27]: 91.3%
- viability, T/C [28]: 101%
- viability, T/C [29]: 38.3%
- viability, T/C [30]: 3.65%
- viability, T/C [13]: 64.5%
- viability, T/C [14]: 62.7%
- viability, T/C [31]: 43%
- viability, T/C [32]: 48.7%
- viability, T/C [33]: 26.7%
- viability, T/C [34]: 1.54%
- viability, T/C [15]: 49.2%
- viability, T/C [16]: 43.8%
- viability, T/C [35]: 44.5%
- viability, T/C [36]: 33.1%
- viability, T/C [37]: 16.2%
- viability, T/C [38]: 0.26%
- viability, T/C [17]: 38.8%
- viability, T/C [18]: 26.8%
- viability, T/C [39]: 31.8%
- viability, T/C [40]: 29.2%
- viability, T/C [41]: 4.69%
- viability, T/C [42]: 0.52%

SMILES: CC1COCCN1c1cc(C2(S(C)(=N)=O)CC2)nc(-c2ccnc3[nH]ccc23)n1 (stereo not drawn) + CNC(=O)c1ccc(Nc2nc(OC3CCCC3)c3c(-c4ccc5nc(C)oc5c4)c[nH]c3n2)c(OC)c1
- IC50 [1]: 3050 nM
- IC50 [2]: 2220 nM
- IC50 [3]: 1820 nM
- IC50 [4]: 308 nM
- IC50 [5]: 196 nM
- IC50 [6]: < 31.6 nM
- viability, T/C [7]: 95.8%
- viability, T/C [8]: 103%
- viability, T/C [19]: 114%
- viability, T/C [20]: 87%
- viability, T/C [21]: 49.7%
- viability, T/C [22]: 22.2%
- viability, T/C [9]: 110%
- viability, T/C [10]: 105%
- viability, T/C [23]: 91.6%
- viability, T/C [24]: 88.8%
- viability, T/C [25]: 32.8%
- viability, T/C [26]: 18.8%
- viability, T/C [11]: 90.5%
- viability, T/C [12]: 93%
- viability, T/C [27]: 71.8%
- viability, T/C [28]: 68%
- viability, T/C [29]: 36%
- viability, T/C [30]: 13.2%
- viability, T/C [13]: 72.4%
- viability, T/C [14]: 53.3%
- viability, T/C [31]: 48.5%
- viability, T/C [32]: 45.8%
- viability, T/C [33]: 22%
- viability, T/C [34]: 8.76%
- viability, T/C [15]: 66.8%
- viability, T/C [16]: 43.6%
- viability, T/C [35]: 47.2%
- viability, T/C [36]: 45.7%
- viability, T/C [37]: 19.3%
- viability, T/C [38]: 8.82%
- viability, T/C [17]: 50.7%
- viability, T/C [18]: 44.7%
- viability, T/C [39]: 40.5%
- viability, T/C [40]: 26.7%
- viability, T/C [41]: 15.1%
- viability, T/C [42]: 9.5%
